The values that follow come from PMC10692721, “Drug discovery for heart failure targeting myosin-binding protein C” (The Journal of Biological Chemistry, 2023).

“Also recorded” adds a separate entry of the source.

The test system of test [1] is rabbit fast skeletal (psoas) myofibrils. The test can be described thus: Skeletal myofibril ATPase assay. It is filed as biochemical. The conditions noted are these: 50 μM compound; for effect on skeletal MF ATPase activity (in words): pCa 8 to pCa 4. As to the method: (§1) Rabbit psoas and bovine cardiac myofibrils were prepared as described in our previous study ([17]). An enzyme-coupled, NADH-linked ATPase assay was used to measure skeletal and cardiac myofibril ATPase activity in 96-well microplates at 23 °C. Ionic strength was maintained below 0.2 M, so myofilaments remained insoluble and stable ([32]). To achieve optimal enzymatic activities, buffers for skeletal and cardiac myofibrils differed slightly ([33], [34]): skeletal in 50 mM MOPS, 100 mM KCl, 5 mM MgCl2, 1 mM EGTA, pH 7.0; cardiac in 20 mM MOPS, 35 mM NaCl, 5 mM MgCl2, 1 mM EGTA, pH 7.0. Each well in the microplate contained an assay mix of 0.84 mM phosphoenolpyruvate, 0.17 mM NADH, 10 U/vol pyruvate kinase, 20 U/vol lactate dehydrogenase. The concentration of free Ca^2+ was controlled by EGTA buffering ([35]). Myofibrils were dispensed in microplates with a multichannel pipette and were incubated with assay mix plus compound of interest for 20 min at 23 °C. The concentration of myofibrils used was 0.01 mg/ml for skeletal and 0.05 mg/ml for cardiac myofibrils. The assay was started upon the addition of ATP, at a final concentration of 2.1 mM (total volume to 200 μl), and absorbance was recorded at 340 nm in a SpectraMax Plus microplate spectrophotometer from Molecular Devices. The steady-state myofibrillar ATPase rate was measured from NADH oxidation, measured as the rate of decrease in absorption at 340 nm for 30 min, with absorption data collected every 15 s. All data and statistical analysis of steady-state kinetics were conducted with the OriginPro program. The results were fitted with the Hill equation:(6) V=V0+(Vmax/1+10^−n∗^(pCa50−pCa)) where V is the ATPase rate and n is the Hill coefficient.
ATPase activity is reported on the μmol ATP/mg protein/min scale. Average data are presented as mean ± SD. Sample means are derived from three different myofibril preps (N = 3), each done in duplicate (n = 6).
The effects of compounds on ATPase activity of myofibrils were determined in the presence of 50 μM compound, across a 12-point pCa range from 4.0 (activation) to 8.0 (relaxation). The calcium sensitivity (pCa50) was determined by fitting the curves to the Hill equation. In all experiments, a 1% DMSO-only control was included. The normalized ATPase activity of the selected compounds can be found in Figure 6.

Test [2] deals with TMR-MyBP-C (cC0-C2, sC1-C2S, sC1-C2L, fC1-C2). As to the kind of experiment: Compound effects on TMR-MyBP-C lifetime (Fig. S2). It is filed as binding. The note with it: Suramin 20 µM, NF023 50 µM, ATA 20 µM.
Text: For FLT-TMR experiments, the same samples were excited at 532 nm.
Compound effects on TMR-MyBP-C lifetime. […] All values are the average ± SD. n=5.
Test [3] relates to bovine cardiac (left ventricular) myofibrils. As to the kind of experiment: Cardiac myofibril ATPase assay. The note with it: 50 μM compound; for effect on cardiac MF ATPase activity (in words): pCa 8 to pCa 4. The class given is biochemical. As to the method: as §1, with “V=V0+(Vmax/1+10^−n∗^(pCa50−pCa)) where V” left out, “coefficient. ATPase activity is reported on the μmol ATP/mg protein/min scale. Average data are presented as mean ± SD. Sample means are derived from three different myofibril preps (N = 3), each done in duplicate (n = 6). The effects of compounds on ATPase activity of myofibrils were determined in the presence of 50 μM compound, across a 12-point pCa range from 4.0 (activation) to 8.0 (relaxation). The calcium sensitivity (pCa50) was determined by fitting the curves to the Hill equation. […] The normalized ATPase activity of the selected compounds can be found in Figure 6.” for “coefficient.”

Test [4] deals with fC1-C2 binding to Alexa Fluor 568-actin. The test can be described thus: AF568-actin-MyBP-C FLT binding assay (Fig. S1). The note with it: Suramin 20 µM, NF023 50 µM, ATA 20 µM.
Test [5] deals with FMAL-actin/TMR-cC0-C2 interaction. The test can be described thus: FLT-FRET concentration-response assay, FMAL-actin plus TMR-cC0-C2. The class given is binding, human. The conditions noted are these: unphosphorylated cC0-C2. In short, it runs like this:
(§2)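 Hits tested at eight concentrations (0.5–100 μM) and read on a high-throughput fluorescence lifetime plate reader. Hill fits applied only under certain conditions.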

Test [6] deals with actin (Oryctolagus cuniculus) (UniProt P68135). The test can be described thus: FLT. The conditions noted are these: cited from earlier work.
The target is the same in test [7]. The test can be described thus: cosedimentation. The note with it: cited from earlier work.
Test [8] shares this target. The test can be described thus: FLT. The note with it: cited from earlier work. The source holds these as a separate data set.
Test [9] has the same target. As to the kind of experiment: cosedimentation. The note with it: cited from earlier work. This is another data set of the same source.
A further test concerns TMR-cC0-C2. As to the kind of experiment: Selleck library HTS, 532 nm excitation (FLT of TMR-cC0-C2 in presence of FMAL-actin). The class given is binding, human.
Test [10] concerns TMR-fC1-C2 (C1-C2 of fast skeletal MyBP-C). As to the kind of experiment: FLT-TMR concentration-response assay, fC1-C2. It is filed as binding. The note with it: 60 μM compound. In short, it runs like this:
as §2

The subject of test [11] is PKA-phosphorylated TMR-cC0-C2 (cC0-C2#P). The test can be described thus: FLT-TMR concentration-response assay, PKA-phosphorylated cC0-C2. The conditions noted are these: 60 μM compound. The class given is binding, human. In short, it runs like this: as §2
For test [12], the system named is TMR-cC0-C2 (C0-C2 fragment of human cMyBP-C). As to the kind of experiment: FLT-TMR concentration-response assay (FLT of TMR on cC0-C2, no actin). The class given is binding. The conditions noted are these: 60 μM compound. In short, it runs like this: as §2
Test [13] concerns FMAL-actin plus TMR-cC0-C2. The test can be described thus: Selleck library HTS, 473 nm excitation (FLT of FMAL-actin with TMR-cC0-C2, FLT-FRET). It is filed as binding, human. In short, it runs like this:
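Donor fluorescence lifetime was then recorded. Waveforms were fit to a single exponential, and ΔFLT was obtained after a moving-median plate-gradient correction (half-row window), rescaled by the median DMSO lifetime.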

[14] abbreviates: robust z-score, hit threshold ±4, 30 μM compound.

Regarding `Cc1ccc(C(=O)Nc2ccc(S(=O)(=O)O)c3cc(S(=O)(=O)O)cc(S(=O)(=O)O)c23)cc1NC(=O)c1cccc(NC(=O)Nc2cccc(C(=O)Nc3cc(C(=O)Nc4ccc(S(=O)(=O)O)c5cc(S(=O)(=O)O)cc(S(=O)(=O)O)c45)ccc3C)c2)c1` [Suramin], in [1], the “effect on Ca^2+-sensitivity of skeletal MF ATPase (in words)” value is reported as “eliminated the Ca^2+-sensitivity” and the “effect on skeletal MF ATPase activity (in words)” value was “showed activation at low Ca^2+; also recorded: strongest effect”. Moreover, the “effect on FLT of TMR-MyBP-C, all MyBP-C isoforms (in words)” value (from here on “effect on FLT of TMR-MyBP-C”) in test [2] is “increased”. In test [3], the “effect on Ca^2+-sensitivity of cardiac MF ATPase (in words)” value (“effect … of cardiac MF ATPase (in words)” below) was “eliminated the Ca^2+-sensitivity” and the “effect on cardiac MF ATPase activity (in words)” value is on record as “remained at levels similar to those at low Ca^2+; also recorded: strongest effect”. For the same compound, in test [4], the “effect on binding of fC1-C2 (2 µM) to Alexa Fluor 568-actin (1 µM) (in words)” value (from here on “effect on binding of fC1-C2 (2 µM)”) is “decreased the binding”. Moreover, in [5], the “effect on FLT-FRET / binding between FMAL-actin and TMR-cC0-C2 (in words)” value is “eliminates binding”.

Take “cardiac MyBP-C C0-C2 (from UniProt Q14896)”: the Kd (in general, the free concentration of one partner at which half of the binding sites on the other are occupied at equilibrium, for simple one-to-one binding) in test [6] is 19 µM; in [7] it was 4.3 µM; in [8], 2.5 µM; in [9] it was 6.5 µM.

Turning to `O=C(Nc1cccc(C(=O)Nc2ccc(S(=O)(=O)O)c3cc(S(=O)(=O)O)cc(S(=O)(=O)O)c23)c1)Nc1cccc(C(=O)Nc2ccc(S(=O)(=O)O)c3cc(S(=O)(=O)O)cc(S(=O)(=O)O)c23)c1` [NF023], in test [2], the “effect on FLT of TMR-MyBP-C” value was “increased”. Further, in test [3], the “effect … of cardiac MF ATPase (in words)” value was “affected” and the “effect on cardiac MF ATPase activity (in words)” value is “affected”. For the same compound, the “effect on binding of fC1-C2 (2 µM)” value in test [4] is on record as “decreased the binding”.

On to Enoxaparin sodium, for which, in [1], the “effect on Ca^2+-sensitivity of skeletal MF ATPase (in words)” value was “negligible” and the “effect on skeletal MF ATPase activity (in words)” value is “reduced at high Ca^2+”. In addition, in the test with TMR-cC0-C2 (initial screen, 30 μM compound), the “532-nm Δτ, Repeat 1” value is recorded as -0.023 ns and the “532-nm Δτ, Repeat 2” value is -0.033 ns. Besides, in the test on TMR-cC0-C2 (setting [14]), the “532-nm z-score (based on avg Δτ)” value is recorded as -1.67. Besides, in test [10], the “cC0-C2/fC1-C2 (ratio of FLT changes)” value amounted to 1.1 and the “fC1-C2 FLT change (% change from DMSO, FLT of TMR-MyBP-C)” value is listed as 2.8%. In test [3], the “effect … of cardiac MF ATPase (in words)” value is given as “significant decrease in Ca^2+-sensitivity” and the “effect on cardiac MF ATPase activity (in words)” value is reported as “reduced at high Ca^2+; also recorded: specific for cardiac myofibril ATPase effects”. The “Ca^2+-sensitivity (pCa50) of cardiac MF ATPase in presence of compound” value in test [3] (5.77 ± 0.03 in the absence of the drug) was 5.55 ± 0.03. Also, the “cC0-C2#P FLT change (% change from DMSO, FLT of TMR-MyBP-C)” value in test [11] is 6.9%. Also, in test [12], the “cC0-C2/cC0-C2#P (ratio of FLT changes)” value turned out to be 0.4 and the “cC0-C2 FLT change (% change from DMSO, FLT of TMR-MyBP-C)” value is given as 3.1%. Further, the “effect on FLT-FRET / binding between FMAL-actin and TMR-cC0-C2 (in words)” value in test [5] is “decrease”. In addition, in test [13] (initial screen, 30 μM compound), the “473-nm Δτ, Repeat 1” value was 0.190 ns and the “473-nm Δτ, Repeat 2” value came out at 0.190 ns. Moreover, the “473-nm z-score (based on avg Δτ)” value in [13] (setting [14]) was 10.68.

Consider `O=C(O)C1=CC(=C(c2ccc(O)c(C(=O)O)c2)c2ccc(O)c(C(=O)O)c2)C=CC1=O` [ATA, Aurintricarboxylic acid], for which the “effect on FLT of TMR-MyBP-C” value in test [2] was “decreased”. The “effect on binding of fC1-C2 (2 µM)” value in test [4] is “decreased the binding”.
